We go through 5 molecules from patent US20110104121A1, “Female Reproductive Tract and Anal Prophylaxes” (priority 2008, published 2011).

One experiment concerns female macrophages. As to the kind of experiment: LPS-induced TNFalpha secretion by female macrophages. The class given is cell-based.
Experiment [1] relates to primary uterine epithelial cells. As to the kind of experiment: MIP3 alpha secretion by primary uterine epithelial cells, ELISA. The class given is cell-based, mice. To be noted: 20 hours, 37° C., vs media control. The protocol:
FIG. 1 depicts levels of MIP3 alpha secretion by primary uterine epithelial cells at 20 hours after exposure to estrogen, ICI […] or the SERMs indicated. P value is comparison to media control.
Indeed, FIG. 1 summarizes the effects of estradiol (estrogen) and four known SERMS on the secretion of MIP3 alpha (aka CCL20), a known potent endogenous antimicrobial peptide, by primary uterine epithelial cells in culture. Epithelial cells were isolated from the uteri of intact mice by enzymatic digestion prior to incubation at 37° C. in the presence or absence of known SERMS for 20 hours. Following incubation in 96-well plates, media was collected and assayed by ELISA for MIP3 alpha.
For orientation: In an ELISA, binding on a coated surface is turned into a signal by an enzyme label.

For experiment [2], the system named is Monocytes-derived Dendritic cells (MDDCs). As to the kind of experiment: surface receptor expression on monocyte-derived dendritic cells, flow cytometry. The experiment is classed as cell-based, human. The protocol:
Materials and Methods. Uterine epithelial cell line (ECC-1) was cultured according to established methods to establish cellular polarity with apical and basolateral compartments (Schaefer, et al. (2004) Immunology 112:428-436). The formation of tight junctions by the epithelial cell monolayer was routinely monitored by measurement of transepithelial resistance (TER) (Richardson, et al. (1995) Biol. Reprod. 53:488-498). […] The pooled media was centrifuged for 5 minutes at 10,000 g and stored at −80° C. for use in subsequent studies.
Peripheral blood mononuclear cells (PBMC) were obtained from residues of platelet pheresis according to known methods (Dietz, et al. (2006) Transfusion 46:2083-2089). Monocytes were subsequently enriched with Rosette Sep reagent (StemCell, Vancouver, BC). Blood specimens were from healthy adult males. Monocytes-derived Dendritic cells (MDDCs) were in vitro generated with GM-CSF (50 ng/ml) and IL-4 (50 ng/ml) (PeproTech Inc, Rocky Hill, N.J.) (Sallusto Lanzavecchia (1994) J. Exp. Med. 179:1109-1118). MDDCs were differentiated for 7 days in the presence or absence of 24-hour conditioned medium (1:1 dilution) obtained from ECC-1. In some experiments TGF-beta receptor 1 blocker, SB431542 (10 μM; Tocris Cookson, Inc., St. Louis, Mo.) (Eriksson, et al. (2006) Am. J. Reprod. Immunol. 56:321-328; Shen, et al. (2007) Clin. Exp. Immunol. 149(1):155-61) was simultaneously added with ECC-1 CM for the entire duration of the differentiation. As positive control for TGF-beta effects on MDDCs, experimental conditions were included in which MDDCs were differentiated with recombinant human TGF-beta1 at three different concentrations (0.1, 1 and 10 ng/mL) in the presence or absence of SB431542. Following 7 days of culture, cells were harvested, washed and subsequently used for flow cytometry analyses.
Following six days of in vitro differentiation, surface staining of MDDCs was performed with the following fluorochrome-labeled monoclonal antibodies: CD1a (HI149), CD14 (61D3), from Ebioscience (San Diego, Calif.); and CD163 (215927), CCR5 (45531), CXCR4 (12G5), DC-SIGN (120507) from R&D Systems (Minneapolis, Minn.). Matched isotype controls for the antibodies were used to control for non-specific binding. Following antibody staining, cells were washed with staining buffer and fixed with 2% methanol-free paraformaldehyde in 1×PBS (2% PFA), followed by analysis with a Becton Dickinson FACS CALIBUR (San Jose, Calif.). The acquired FACS data were analyzed by CELL QUEST (BD Biosciences).
Statistical analysis was performed using two-way analysis of variance (ANOVA) ([…] Prism Version 5.0; […] Software Inc., San Diego, Calif.). A value of P<0.05 was considered significant.

Experiment [3] concerns ectocervix stromal fibroblasts. As to the kind of experiment: HGF secretion by ectocervix stromal fibroblasts, ELISA. The note with it: estradiol. The class given is cell-based, human. On the procedure:
(§1) Materials and Methods. FRT mucosal tissue was obtained following surgery from women who underwent hysterectomies. Tissues used in this study were distal to the sites of pathology and were determined to be unaffected by disease upon inspection by a trained pathologist. Tissues were transported from Pathology and procedures to isolate stromal fibroblasts began within 2 hours of surgery.
(§2) Tissues from the Fallopian tube, uterus, cervix, and ectocervix were dispersed into epithelial and stromal cell fractions by enzymatic digestion (Fahey, et al. (1998) Immunol. Invest. 27:167-180; Meter, et al. (2005) Fertil. Steril. 84:191-201). […] This procedure was chosen to maximize digestion of the extracellular matrix, as verified by microscopy and by hematoxylin and eosin staining of frozen sections after digestion, while minimizing digestion of cell surface antigens as determined by flow cytometry. […]
(§3) Stromal cell fractions were washed, resuspended in complete media, and cultured in T75 flasks. […] When confluent, the cells in the flask were counted and sub-cultured into 24 well culture plates (Fisher Scientific, Pittsburgh, Pa.). […]
(§4) Once the cells reached confluence, they were cultured in complete media with 10% stripped FBS (Hyclone). […] In related experiments, when cell proliferation was analyzed, harvested from culture wells and counted by Coulter Counter. […]

Experiment [4] relates to cervix stromal fibroblasts. As to the kind of experiment: HGF secretion by cervix stromal fibroblasts, ELISA. The class given is cell-based, human. The note with it: estradiol. The protocol:
as §1, §2, §3, §4

Experiment [5] deals with uterine stromal fibroblasts. As to the kind of experiment: HGF secretion by uterine stromal fibroblasts, ELISA. The experiment is classed as cell-based, human. On the procedure: as §1
Tissues from the Fallopian tube, uterus, cervix, and ectocervix were dispersed into epithelial and stromal cell fractions by enzymatic digestion (Fahey, et al. (1998) Immunol. Invest. 27:167-180; Meter, et al. (2005) Fertil. Steril. 84:191-201). Briefly, tissues were minced under sterile conditions into 1-2 mm fragments and then digested at 37° C. for 1 hour using a “PHC” enzyme mixture that contained final concentrations of 3.4 mg/ml pancreatin (Gibco Life Technologies, Rockville, Md.), 0.1 mg/ml hyaluronidase (Worthington Biochemical Corporation, Freehold, N.J.), 1.6 mg/ml collagenase (Worthington) and 2 mg/ml D-glucose (Sigma, St Louis, Mo.) in Hank's balanced salt solution (Gibco, Invitrogen). This procedure was chosen to maximize digestion of the extracellular matrix, as verified by microscopy and by hematoxylin and eosin staining of frozen sections after digestion, while minimizing digestion of cell surface antigens as determined by flow cytometry. After incubating in this enzyme cocktail, cells and tissue fragments were collected, washed with complete media consisting of DMEM/F-12 without phenol red (Gibco) supplemented with 10% heat-inactivated fetal calf serum (Hyclone, Logan, Utah), 2 mM fresh L-glutamine, 25 mM HEPES, […] primocin (InvivoGen, San Diego, Calif.) and separated from tissue aggregates by sedimentation for 5 minutes. Medium containing predominantly single cells and small epithelial cell glands were removed and dispersed through a 250 μm nylon mesh screen (Small Parts, Miami Lake, Fla.). […]
as §3
Once the cells reached confluence, they were cultured in complete media with 10% stripped FBS (Hyclone). […] In related experiments, when cell proliferation was analyzed, harvested from culture wells and counted by Coulter Counter. […] Viability of the cultures was determined using trypan blue dye exclusion and manual counting of live vs. dead cells on a hemocytometer. […]

The test system of a further experiment is vaginal cells. The experiment is described as follows: relative mRNA expression of SLPI and defensins in vaginal cells. The class given is cell-based. To be noted: for relative vaginal alpha defensin 2 expression: saline control printed −7.5×10^4; for relative mRNA expression of beta defensin 1 in vaginal cells: saline control ~1.1×10^8. The protocol: (§5) The analysis of SERM activity is carried out using fresh hysterectomy tissues, wherein epithelial cells, neutrophils, NK cells and macrophage/dendritic cells (MAC/DC), which are known to be responsive in culture to sex hormones, are recovered. Using conventional assays, SERMs (e.g., Tamoxifen, bazedoxifene acetate, lasofoxifene and raloxifene, etc) are analyzed for their ability to regulate immunological endpoints which have been identified as optimal for protection against HIV. […] Similarly, ICI 182,780 increased relative vaginal SLPI mRNA levels by 26-fold over saline controls. Furthermore, ICI 182,780, tamoxifen, and Y134 increased relative uterine alpha defensin 2 expression (˜3×10^5, ˜4×10^5, and −1.2×10^6, respectively) compared to ˜0.2×10^5 in the saline control. ICI 182,780, Y134, and PHTPP were also found to increase relative vaginal alpha defensin 2 expression (˜2.4×10^5, ˜4×10^5, and ˜1.6×10^5, respectively) compared to −7.5×10^4 in the saline control.

In experiment [6] the test system is primary uterine epithelial cells. The experiment is described as follows: mouse KC (IL8) secretion from primary uterine epithelial cells. The note with it: 24-hour treatment. The class given is cell-based.
The test system of the next experiment is uterine cells. The experiment is described as follows: relative mRNA expression of SLPI and defensins in uterine cells. To be noted: for relative uterine alpha defensin 2 expression: saline control ~0.2×10^5; for relative beta defensin 4 mRNA expression in uterine cells: saline control ~0.4×10^5. The experiment is classed as cell-based. The protocol: as §5

Another experiment concerns CCR5-tropic HIV. To be noted: in vitro; read-out: 50% inhibitory concentration, CCR5-tropic HIV infectivity; cited from earlier work.
[7] abbreviates: Table 4, control vehicle, N = 3.
Setting [8] is: Table 5, control vehicle, N = 3.

Consider `C[C@]12CC[C@@H]3c4ccc(O)cc4CC[C@H]3[C@@H]1CC[C@@H]2O` [E2, 17β-estradiol], for which the “TNFalpha (% of Control)” value in the experiment on female macrophages (E2 0.001 nM, control no E2, N = 4) is reported as 98.35 ± 3.19 % of Control; in the experiment with female macrophages (E2 0.01 nM, control no E2, N = 4), 97.72 ± 6.89 % of Control; with female macrophages (E2 0.1 nM, control no E2, N = 4), 94.68 ± 11.62 % of Control; with female macrophages (setting [7]), 73.96 ± 3.00 % of Control; with female macrophages (setting [8]) it was 73.96 ± 3.00 % of Control. Besides, the MIP3 alpha secretion entry in [1] is “no effect”. For the same molecule, the “DC-SIGN expression on immature DCs” value in experiment [2] is “increases”. The “secretion of HGF from ectocervix stromal fibroblasts” value in [3] is on record as “no effect”. Further, the “HGF secretion by cervix stromal fibroblasts” value in experiment [4] is “did not increase”. Besides, the “uterine stromal fibroblast HGF secretion” value in experiment [5] (10^−7 M or 10^−8 M estradiol, within 48 hours) is listed as “significantly increased”. Besides, in experiment [5] (24 hours after addition of estradiol), the “estradiol response of HGF at 24 hours, responding patients” value is given as “two out of five patients”. Besides, the “cell numbers, control vs estradiol-treated wells” value in experiment [5] (counted at 48-hour intervals) is “did not differ”. For the same molecule, the “HGF secretion, six days vs two days of exposure” value in experiment [5] (estradiol 2, 4, 6 days, CM collected at 48 hour intervals) was “three times more HGF”.
Turning to `C[C@]12CC[C@@H]3c4ccc(O)cc4C[C@@H](CCCCCCCCC[S+]([O-])CCCC(F)(F)C(F)(F)F)[C@H]3[C@@H]1CC[C@@H]2O` (stereo partly shown) [ICI 182,780], in the experiment with female macrophages (setting [7]), the “TNFalpha (% of Control)” value is 111.87 ± 15.68 % of Control. Further, the MIP3 alpha secretion entry in [1] is “significantly increased”. For the same molecule, in the experiment on vaginal cells, the “increase in relative vaginal SLPI mRNA levels over saline controls” value was 26 fold, the “relative mRNA expression of beta defensin 2 in vaginal cells” value is “not significantly affected”, the “relative vaginal alpha defensin 2 expression” value was ~2.4×10^5 and the “relative mRNA expression of beta defensin 1 in vaginal cells” value is ~2.15×10^8. In addition, the “secretion of mouse KC (IL8)” value in experiment [6] is listed as “significantly increased”. In the experiment with uterine cells, the “increase in relative uterine SLPI mRNA levels over saline controls” value is on record as ~3×10^5 and the “relative uterine alpha defensin 2 expression” value is reported as ~3×10^5.
In the case of `Oc1ccc(-c2c(-c3ccccc3)nn3c(C(F)(F)F)cc(C(F)(F)F)nc23)cc1` [PHTPP], the “TNFalpha (% of Control)” value in the experiment on female macrophages (setting [8]) is listed as 79.96 ± 6.43 % of Control. Besides, the MIP3 alpha secretion entry in experiment [1] is listed as “marginal effect”. In addition, in the experiment on vaginal cells, the “relative mRNA expression of beta defensin 2 in vaginal cells” value was “not significantly affected” and the “relative vaginal alpha defensin 2 expression” value was ~1.6×10^5. The “secretion of mouse KC (IL8)” value in experiment [6] is recorded as “marginal effect”. In the experiment with uterine cells, the “increase in relative uterine SLPI mRNA levels over saline controls” value was ~8×10^5 and the “relative beta defensin 4 mRNA expression in uterine cells” value is reported as ~8×10^5. For the same molecule, the “relative mRNA expression of beta defensin 2 in uterine cells” value with uterine cells (saline control ~1×10^5) was ~1.55×10^8. Besides, the “relative mRNA expression of beta defensin 1 in uterine cells” value in the experiment on uterine cells (saline control ~1.1×10^6) was ~1.05×10^8.
As for `CC/C(=C(\c1ccccc1)c1ccc(OCCN(C)C)cc1)c1ccccc1` [tamoxifen], in [1], the MIP3 alpha secretion entry was “marginal effect”. In addition, in the experiment with vaginal cells, the “relative mRNA expression of beta defensin 2 in vaginal cells” value was “not significantly affected” and the “relative mRNA expression of beta defensin 1 in vaginal cells” value was ~1.75×10^8. Also, the “relative beta defensin 4 mRNA expression in vaginal cells” value in the experiment on vaginal cells (saline control ~1×10^7) was ~2.1×10^8. Moreover, the “secretion of mouse KC (IL8)” value in [6] is on record as “marginal effect”. Further, in the experiment on uterine cells, the “increase in relative uterine SLPI mRNA levels over saline controls” value is ~2.5×10^5, the “relative uterine alpha defensin 2 expression” value was ~4×10^5 and the “relative beta defensin 4 mRNA expression in uterine cells” value was ~6×10^5.

B1: Lactobacillus-derived CV-N: HIV inhibitor Cyanovirin-N produced by engineered vaginal Lactobacillus (protein, UniProt P81180 1-101, looked up)
Cyanovirin-N: LGKFSQTCYNSAIQGSVLTSTCERTNGGYNTSSIDLNSVIENVDGSLKWQPSNFIETCRNTQLAGSSELAAECKTRAQQFVSTKINLDDHIANIDGTLKYE
modifications: produced in engineered Lactobacillus
As for B1, the IC50 with CCR5-tropic HIV was 0.3 nM.
